In patent publication US10844077B2, “Thiazolyl-containing compounds for treating proliferative diseases” (Dana-Farber Cancer Institute, Inc., priority 2014, dated 2020):
Values joined by “and” are separate entries in the source; they are usually repeats but may differ in a detail not shown here. Equal entries are not always repeated.

Assays:
Type in all cases: cell-based
kinases in BCWM.1 cells [1] = molecular target: kinases in BCWM.1 cells (Homo sapiens, UniProt P24941); settings: CDK2; Lys2; 1 μM; GF
Description: (§1) The cells were harvested and lysed. […] Bound kinases were identified and quantitated by ACTIVX as described in Patricelli et al., Biochemistry, 2007, 46(2): 350-358. The compounds were tested in duplicates against duplicate or quadruplicate control samples.

kinases in BCWM.1 cells [2] = molecular target: kinases in BCWM.1 cells (Homo sapiens, UniProt P78368); settings: CK1g2; Lys2; 1 μM; GF
Description: as §1

kinases in BCWM.1 cells [3] = molecular target: kinases in BCWM.1 cells (Homo sapiens, UniProt Q8IU85); settings: CaMKld; Lys1; 1 μM; GF
Description: as §1

kinases in BCWM.1 cells [4] = molecular target: kinases in BCWM.1 cells (Homo sapiens, UniProt O14976); settings: GAK; Lys2; 1 μM; GF
Description: as §1

kinases in BCWM.1 cells [5] = molecular target: kinases in BCWM.1 cells (Homo sapiens, UniProt P07948); settings: LYN; Lys1; 1 μM; GF
Description: as §1

kinases in BCWM.1 cells [6] = molecular target: kinases in BCWM.1 cells (Homo sapiens, UniProt P45985); settings: MAP2K4; Lys2; 1 μM; GF
Description: as §1

kinases in BCWM.1 cells [7] = molecular target: kinases in BCWM.1 cells (Homo sapiens, UniProt O00418); settings: eEF2K; ATP; 1 μM; GF
Description: as §1

kinases in BCWM.1 cells [8] = molecular target: kinases in BCWM.1 cells (Homo sapiens, UniProt Q9P2K8); settings: GCN2; Lys2; 1 μM; GF
Description: as §1

kinases in BCWM.1 cells [9] = molecular target: kinases in BCWM.1 cells (Homo sapiens, UniProt O94806); settings: PKD3; Lys1; 1 μM, 90 min; GF
Description: as §1

kinases in BCWM.1 cells [10] = molecular target: kinases in BCWM.1 cells (Homo sapiens, UniProt Q14004)
Description: as §1

kinases in BCWM.1 cells [11] = molecular target: kinases in BCWM.1 cells (Homo sapiens, UniProt Q8NB16); settings: MLKL; Lys1; 1 μM; GF
Description: as §1

kinases in BCWM.1 cells [12] = molecular target: kinases in BCWM.1 cells (Homo sapiens, UniProt Q5TCX8); settings: MLK4; Lys2; 1 μM; GF
Description: as §1

kinases in BCWM.1 cells [13] = molecular target: kinases in BCWM.1 cells (Homo sapiens, UniProt Q9Y6E0); settings: MST3; Lys2; 1 μM; GF
Description: as §1

kinases in BCWM.1 cells [14] = molecular target: kinases in BCWM.1 cells (Homo sapiens, UniProt P23743); settings: DGKA; ATP; 1 μM; GF
Description: as §1

kinases in BCWM.1 cells [15] = molecular target: kinases in BCWM.1 cells (Homo sapiens, UniProt O94804); settings: LOK; Lys2; 1 μM; GF
Description: as §1

kinases in BCWM.1 cells [16] = molecular target: kinases in BCWM.1 cells (Homo sapiens, UniProt P06241); settings: FYN; Lys1; 1 μM; GF
Description: as §1

kinases in BCWM.1 cells [17] = molecular target: kinases in BCWM.1 cells (Homo sapiens, UniProt Q96RR4); settings: CaMKK2; Lys2; 1 μM; GF
Description: as §1

kinases in BCWM.1 cells [18] = molecular target: kinases in BCWM.1 cells (Homo sapiens, UniProt Q06187); settings: BTK; Activation Loop; 1 μM; GF
Description: as §1

kinases in BCWM.1 cells [19] = molecular target: kinases in BCWM.1 cells (Homo sapiens, UniProt P51617); settings: IRAK1; Lys2; 1 μM; GF
Description: as §1

kinases in BCWM.1 cells [20] = molecular target: kinases in BCWM.1 cells (Homo sapiens, UniProt O75582); settings: MSK1 domain1; Lys2; 1 μM; GF
Description: as §1

kinases in BCWM.1 cells [21] = molecular target: kinases in BCWM.1 cells (Homo sapiens, UniProt Q16566); settings: CaMK4; Lys2; 1 μM; GF
Description: as §1

kinases in BCWM.1 cells [22] = molecular target: kinases in BCWM.1 cells (Homo sapiens, UniProt P06239); settings: LCK; Activation Loop; 1 μM; GF
Description: as §1

kinases in BCWM.1 cells [23] = molecular target: kinases in BCWM.1 cells (Homo sapiens, UniProt Q9UK32); settings: RSK4 domain1; Lys2; 1 μM, 90 min; GF
Description: as §1

kinases in BCWM.1 cells [24] = molecular target: kinases in BCWM.1 cells (Homo sapiens, UniProt P51451); settings: BLK; Activation Loop; 1 μM; GF
Description: as §1

kinases in BCWM.1 cells [25] = molecular target: kinases in BCWM.1 cells (Homo sapiens, UniProt P41279); settings: COT; ATP Loop; 1 μM; GF
Description: as §1

kinases in BCWM.1 cells [26] = molecular target: kinases in BCWM.1 cells (Homo sapiens, UniProt P49760); settings: CLK2; Lys2; 1 μM; GF
Description: as §1

kinases in BCWM.1 cells [27] = molecular target: kinases in BCWM.1 cells (Homo sapiens, UniProt Q00535); settings: CDK5; Lys2; 1 μM; GF
Description: as §1

kinases in BCWM.1 cells [28] = molecular target: kinases in BCWM.1 cells (Homo sapiens, UniProt P51956); settings: NEK3; Activation Loop; 1 μM, 90 min; GF
Description: as §1

kinases in BCWM.1 cells [29] = molecular target: kinases in BCWM.1 cells (Homo sapiens, UniProt P41240); settings: CSK; Activation Loop; 1 μM; GF
Description: as §1

kinases in BCWM.1 cells [30] = molecular target: kinases in BCWM.1 cells (Homo sapiens, UniProt Q15831); settings: LKB1; Lys2; 1 μM; GF
Description: as §1

kinases in BCWM.1 cells [31] = molecular target: kinases in BCWM.1 cells (Homo sapiens, UniProt P29323); settings: EphB2; Activation Loop; 1 μM; GF
Description: as §1

Chain of kinases in BCWM.1 cells (Homo sapiens, UniProt Q96RR4) (Q96RR4 2-588 limits assumed): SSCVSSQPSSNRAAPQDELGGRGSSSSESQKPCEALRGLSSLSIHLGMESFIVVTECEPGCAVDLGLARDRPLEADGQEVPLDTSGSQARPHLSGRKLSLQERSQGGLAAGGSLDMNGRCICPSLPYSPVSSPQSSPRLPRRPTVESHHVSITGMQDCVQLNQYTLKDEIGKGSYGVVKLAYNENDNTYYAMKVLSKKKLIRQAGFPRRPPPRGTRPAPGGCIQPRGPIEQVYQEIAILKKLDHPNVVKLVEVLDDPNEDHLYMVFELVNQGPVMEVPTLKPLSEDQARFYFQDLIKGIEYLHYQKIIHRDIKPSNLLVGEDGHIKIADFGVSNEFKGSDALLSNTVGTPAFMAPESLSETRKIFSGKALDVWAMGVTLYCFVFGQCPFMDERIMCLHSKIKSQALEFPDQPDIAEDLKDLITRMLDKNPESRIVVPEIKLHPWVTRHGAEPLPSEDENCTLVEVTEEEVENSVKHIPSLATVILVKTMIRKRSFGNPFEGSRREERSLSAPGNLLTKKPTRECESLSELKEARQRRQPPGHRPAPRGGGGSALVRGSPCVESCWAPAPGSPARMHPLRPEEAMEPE
Chain of kinases in BCWM.1 cells (Homo sapiens, UniProt P06239) (P06239 2-509 limits assumed): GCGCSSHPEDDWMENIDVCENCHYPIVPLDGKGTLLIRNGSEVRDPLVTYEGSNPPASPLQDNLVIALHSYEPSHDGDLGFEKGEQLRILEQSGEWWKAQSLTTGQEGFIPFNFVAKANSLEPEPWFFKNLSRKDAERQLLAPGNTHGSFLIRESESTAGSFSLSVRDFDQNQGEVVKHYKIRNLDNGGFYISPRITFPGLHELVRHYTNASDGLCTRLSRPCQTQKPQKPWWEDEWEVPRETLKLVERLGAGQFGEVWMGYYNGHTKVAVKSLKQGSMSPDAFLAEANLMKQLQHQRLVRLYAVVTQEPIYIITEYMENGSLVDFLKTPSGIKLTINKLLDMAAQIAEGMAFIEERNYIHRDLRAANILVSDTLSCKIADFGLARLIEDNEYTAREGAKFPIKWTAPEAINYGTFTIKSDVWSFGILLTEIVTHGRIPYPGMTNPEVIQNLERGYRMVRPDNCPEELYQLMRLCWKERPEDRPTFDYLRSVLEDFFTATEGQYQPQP
Chain of kinases in BCWM.1 cells (Homo sapiens, UniProt P41240) (P41240 2-450 limits assumed): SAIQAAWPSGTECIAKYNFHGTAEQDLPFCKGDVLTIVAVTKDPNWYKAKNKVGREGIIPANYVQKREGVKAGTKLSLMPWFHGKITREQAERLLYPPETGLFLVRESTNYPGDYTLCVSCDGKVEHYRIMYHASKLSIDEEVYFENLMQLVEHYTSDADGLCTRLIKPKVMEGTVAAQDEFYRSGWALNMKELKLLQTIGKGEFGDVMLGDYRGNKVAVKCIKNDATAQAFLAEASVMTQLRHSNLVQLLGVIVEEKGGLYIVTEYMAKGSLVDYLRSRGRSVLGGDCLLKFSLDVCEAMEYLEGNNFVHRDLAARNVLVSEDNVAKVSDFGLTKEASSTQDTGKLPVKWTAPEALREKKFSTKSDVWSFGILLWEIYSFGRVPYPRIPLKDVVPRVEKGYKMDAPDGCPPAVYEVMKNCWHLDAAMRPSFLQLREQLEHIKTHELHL
Chain of kinases in BCWM.1 cells (Homo sapiens, UniProt P45985) (P45985 2-399 limits assumed): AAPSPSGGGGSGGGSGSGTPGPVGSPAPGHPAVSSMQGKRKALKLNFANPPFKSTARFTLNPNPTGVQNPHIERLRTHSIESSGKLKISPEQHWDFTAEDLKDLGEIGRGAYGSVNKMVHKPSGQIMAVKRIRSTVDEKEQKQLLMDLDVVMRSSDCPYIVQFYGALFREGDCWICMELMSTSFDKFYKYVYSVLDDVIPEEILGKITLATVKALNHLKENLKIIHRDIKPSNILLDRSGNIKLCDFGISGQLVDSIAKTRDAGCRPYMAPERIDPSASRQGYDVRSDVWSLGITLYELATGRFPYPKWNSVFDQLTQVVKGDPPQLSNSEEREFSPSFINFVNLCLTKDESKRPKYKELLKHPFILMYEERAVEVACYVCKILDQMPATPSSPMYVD
Chain of kinases in BCWM.1 cells (Homo sapiens, UniProt O00418) (O00418 2-725 limits assumed): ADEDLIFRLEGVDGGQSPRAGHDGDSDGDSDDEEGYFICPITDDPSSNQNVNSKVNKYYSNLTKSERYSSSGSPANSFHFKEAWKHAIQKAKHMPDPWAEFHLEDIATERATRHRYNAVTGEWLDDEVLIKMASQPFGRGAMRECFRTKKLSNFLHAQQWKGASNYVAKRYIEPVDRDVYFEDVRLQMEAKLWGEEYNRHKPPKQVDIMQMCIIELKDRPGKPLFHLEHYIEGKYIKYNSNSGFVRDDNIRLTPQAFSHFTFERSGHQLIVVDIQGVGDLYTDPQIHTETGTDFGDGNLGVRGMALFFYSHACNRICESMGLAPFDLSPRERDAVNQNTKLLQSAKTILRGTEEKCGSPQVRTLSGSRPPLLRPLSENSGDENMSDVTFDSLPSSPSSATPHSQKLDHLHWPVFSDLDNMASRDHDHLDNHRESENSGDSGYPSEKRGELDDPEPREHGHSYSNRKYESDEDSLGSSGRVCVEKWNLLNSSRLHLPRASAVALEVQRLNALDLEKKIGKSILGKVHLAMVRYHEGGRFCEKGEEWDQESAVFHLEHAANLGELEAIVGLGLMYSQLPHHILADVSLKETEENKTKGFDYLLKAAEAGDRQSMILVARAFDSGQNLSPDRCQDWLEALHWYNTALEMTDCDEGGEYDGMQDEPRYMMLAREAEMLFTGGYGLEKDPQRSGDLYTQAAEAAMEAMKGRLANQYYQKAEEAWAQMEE
Chain of kinases in BCWM.1 cells (Homo sapiens, UniProt P29323) (P29323 19-1055 limits assumed): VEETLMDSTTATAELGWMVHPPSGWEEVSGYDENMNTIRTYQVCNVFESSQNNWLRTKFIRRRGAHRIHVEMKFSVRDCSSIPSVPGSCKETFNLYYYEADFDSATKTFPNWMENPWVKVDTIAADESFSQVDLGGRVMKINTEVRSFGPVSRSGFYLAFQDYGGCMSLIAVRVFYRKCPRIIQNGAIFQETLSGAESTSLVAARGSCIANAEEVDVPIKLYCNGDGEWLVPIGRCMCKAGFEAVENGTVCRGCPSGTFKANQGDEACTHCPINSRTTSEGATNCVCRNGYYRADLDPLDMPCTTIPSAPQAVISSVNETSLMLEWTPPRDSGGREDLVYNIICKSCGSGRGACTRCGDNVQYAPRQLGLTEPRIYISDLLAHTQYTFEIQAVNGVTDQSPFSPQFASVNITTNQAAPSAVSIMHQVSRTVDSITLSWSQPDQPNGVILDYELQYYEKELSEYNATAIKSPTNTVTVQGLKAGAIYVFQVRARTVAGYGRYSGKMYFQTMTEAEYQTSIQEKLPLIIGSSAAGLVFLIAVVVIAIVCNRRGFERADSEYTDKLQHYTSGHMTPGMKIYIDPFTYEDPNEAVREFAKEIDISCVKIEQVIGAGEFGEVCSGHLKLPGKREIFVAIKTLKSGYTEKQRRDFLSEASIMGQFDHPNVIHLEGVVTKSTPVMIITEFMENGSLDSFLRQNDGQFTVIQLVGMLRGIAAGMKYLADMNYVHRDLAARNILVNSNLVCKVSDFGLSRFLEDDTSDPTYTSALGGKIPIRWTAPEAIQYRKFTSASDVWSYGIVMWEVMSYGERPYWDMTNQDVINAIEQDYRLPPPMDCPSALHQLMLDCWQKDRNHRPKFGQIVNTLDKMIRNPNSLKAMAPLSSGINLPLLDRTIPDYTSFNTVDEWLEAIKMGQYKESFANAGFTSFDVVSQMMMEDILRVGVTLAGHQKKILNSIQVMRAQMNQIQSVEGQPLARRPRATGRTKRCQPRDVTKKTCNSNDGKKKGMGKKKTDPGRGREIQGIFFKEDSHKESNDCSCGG
Chain of kinases in BCWM.1 cells (Homo sapiens, UniProt Q06187) (Q06187 2-659 limits assumed): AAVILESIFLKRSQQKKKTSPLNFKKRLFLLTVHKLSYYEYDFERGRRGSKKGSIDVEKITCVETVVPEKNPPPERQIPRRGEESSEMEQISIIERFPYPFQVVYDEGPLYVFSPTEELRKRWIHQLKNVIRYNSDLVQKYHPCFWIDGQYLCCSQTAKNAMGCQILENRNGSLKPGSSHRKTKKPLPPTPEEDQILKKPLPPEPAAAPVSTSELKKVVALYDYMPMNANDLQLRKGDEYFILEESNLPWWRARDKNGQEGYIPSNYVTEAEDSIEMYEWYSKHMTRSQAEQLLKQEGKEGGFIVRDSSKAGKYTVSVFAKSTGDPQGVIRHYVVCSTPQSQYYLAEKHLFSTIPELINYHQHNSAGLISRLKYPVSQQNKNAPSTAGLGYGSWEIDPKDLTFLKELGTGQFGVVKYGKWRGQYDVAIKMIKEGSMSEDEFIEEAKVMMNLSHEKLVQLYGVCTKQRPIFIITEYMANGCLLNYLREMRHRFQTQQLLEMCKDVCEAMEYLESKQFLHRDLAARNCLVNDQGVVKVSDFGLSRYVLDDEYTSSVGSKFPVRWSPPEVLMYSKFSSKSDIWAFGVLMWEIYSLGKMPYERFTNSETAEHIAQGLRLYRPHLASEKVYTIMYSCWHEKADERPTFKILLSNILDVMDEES
Chain of kinases in BCWM.1 cells (Homo sapiens, UniProt P07948) (P07948 2-512 limits assumed): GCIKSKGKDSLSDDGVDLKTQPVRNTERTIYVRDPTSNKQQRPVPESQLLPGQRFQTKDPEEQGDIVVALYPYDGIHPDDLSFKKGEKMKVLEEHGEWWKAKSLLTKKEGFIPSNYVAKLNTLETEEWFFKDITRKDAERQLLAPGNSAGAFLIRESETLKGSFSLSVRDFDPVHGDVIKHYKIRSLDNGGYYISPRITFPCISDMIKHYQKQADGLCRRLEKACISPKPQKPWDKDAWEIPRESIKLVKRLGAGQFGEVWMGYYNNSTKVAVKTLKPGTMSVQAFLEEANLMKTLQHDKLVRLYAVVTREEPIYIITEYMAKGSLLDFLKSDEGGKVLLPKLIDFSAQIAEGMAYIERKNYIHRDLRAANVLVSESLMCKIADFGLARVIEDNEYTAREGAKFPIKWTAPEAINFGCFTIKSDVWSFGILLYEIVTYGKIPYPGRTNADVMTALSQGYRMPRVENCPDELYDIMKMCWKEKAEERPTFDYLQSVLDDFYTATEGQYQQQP

For `CCC(=O)N1CC[C@H](Nc2nccc(Nc3ncc(C(=O)Nc4c(C)cccc4C)s3)n2)C1` [Example I-9], the “% change of MS signal compared to control sample” value (“% change of MS signal” below) (kinases in BCWM.1 cells [1]) was −8.7% and −4.3%, the “% change of MS signal” value (kinases in BCWM.1 cells [2]) was −8.9% and −10.9% and the “% change of MS signal” value (kinases in BCWM.1 cells [3]) was −7.5% and −4.6%. The “% change of MS signal” value (kinases in BCWM.1 cells [4]) was 33.8%, the “% change of MS signal” value (kinases in BCWM.1 cells [5]) was 85.2% and 94% and the “% change of MS signal” value (kinases in BCWM.1 cells [6]) was −5.4% and −2.1%. The “% change of MS signal” value (kinases in BCWM.1 cells [7]) was −51.4% and −48.7%, the “% change of MS signal” value (kinases in BCWM.1 cells [8]) was −18.8% and −10.7% and the “% change of MS signal” value (kinases in BCWM.1 cells [9]) was −9.2%. The “% change of MS signal” value (kinases in BCWM.1 cells [10]) was 5.7% and 15.3%, the “% change of MS signal” value (kinases in BCWM.1 cells [11]) was −4.7% and −3.9% and the “% change of MS signal” value (kinases in BCWM.1 cells [12]) was −22% and −18.5%. The “% change of MS signal” value (kinases in BCWM.1 cells [13]) was −1.9% and −1.4%, the “% change of MS signal” value (kinases in BCWM.1 cells [14]) was −1.5% and −6.6% and the “% change of MS signal” value (kinases in BCWM.1 cells [15]) was 26.2% and 15.2%. For the same compound, the “% change of MS signal” value (kinases in BCWM.1 cells [16]) was >91%, the “% change of MS signal” value (kinases in BCWM.1 cells [17]) was −4.9% and 0.5% and the “% change of MS signal” value (kinases in BCWM.1 cells [18]) was 96.7% and 70.7%. The “% change of MS signal” value (kinases in BCWM.1 cells [19]) was −2.6% and −3.2%, the “% change of MS signal” value (kinases in BCWM.1 cells [20]) was −22.8% and −23.9% and the “% change of MS signal” value (kinases in BCWM.1 cells [21]) was −10.3% and −13.1%. The “% change of MS signal” value (kinases in BCWM.1 cells [22]) was 61.6% and 82.8%, the “% change of MS signal” value (kinases in BCWM.1 cells [23]) was 15.8% and the “% change of MS signal” value (kinases in BCWM.1 cells [24]) was 93.7% and 95.4%. The “% change of MS signal” value (kinases in BCWM.1 cells [25]) was −37.3% and −40.3%, the “% change of MS signal” value (kinases in BCWM.1 cells [26]) was −19.3% and −10.6% and the “% change of MS signal” value (kinases in BCWM.1 cells [27]) was −1.1% and 7.7%. The “% change of MS signal” value (kinases in BCWM.1 cells [28]) was −3.2%, the “% change of MS signal” value (kinases in BCWM.1 cells [29]) was −6% and 1.5% and the “% change of MS signal” value (kinases in BCWM.1 cells [30]) was −11.2% and −7.4%. The “% change of MS signal” value (kinases in BCWM.1 cells [31]) was 81.7% and 85.6%.
